Structures are written as SMILES. pIC50: −log10 of the molar value. ≈ marks a conversion by molar mass, not a printed value. Where a SMILES comes first, the peptide text is derived from it. Bridges are numbered along the chain shown (N, C = ends). [ ]: non-standard residue; d: D form. The star is where a group is joined. Octanoyl = CCCCCCCC(=O)*; Dab = NCC[C@H](N)C(=O)O; Abu = CC[C@H](N)C(=O)O

For experiment [1], the system named is Escherichia coli. The experiment in a line: Antimicrobial activity against Escherichia coli. In kind it is functional.
The next experiment has as its system Pseudomonas aeruginosa. The experiment in a line: Antimicrobial activity against Pseudomonas aeruginosa. It is filed as functional, organism-based.
Another experiment relates to Klebsiella pneumoniae. In words: Antimicrobial activity against Klebsiella pneumoniae. In kind it is functional.
Experiment [2] relates to Escherichia coli. The experiment in a line: Antimicrobial activity against Escherichia coli at 10 ug/mL. It is filed as functional.
The next experiment addresses Lipopolysaccharide (LPS). In words: Displacement of dansyl-PMB from LPS by isothermal titration calorimetry. The note with it: read-out: IC50. (In general: In ITC the heat of successive injections is recorded.)
The test system of experiment [3] is Escherichia coli. The experiment in a line: Antimicrobial activity against Escherichia coli assessed as relative sensitizing activity. In kind it is functional.

On to `CC(C)C[C@@H]1NC(=O)[C@@H](Cc2ccccc2)NC(=O)[C@H](CCN)NC(=O)[C@@H](NC(=O)[C@H](CCN)NC(=O)[C@H](NC(=O)[C@H](C)NC(=O)[C@@H](C)NC(=O)[C@H](C)N)[C@@H](C)O)CCNC(=O)[C@@H]([C@@H](C)O)NC(=O)[C@H](CCN)NC(=O)[C@H](CCN)NC1=O`, for which the minimal inhibitory concentration (MIC) in the experiment on Escherichia coli [1], with Pseudomonas aeruginosa and against Klebsiella pneumoniae was ≥ 500 µg/mL throughout.
With `CC(C)C[C@@H]1NC(=O)[C@@H](Cc2ccccc2)NC(=O)[C@H](CCN)NC(=O)[C@@H](NC(=O)[C@H](CCN)NC(=O)[C@H](NC(=O)OCC2c3ccccc3-c3ccccc32)[C@@H](C)O)CCNC(=O)[C@@H]([C@@H](C)O)NC(=O)[C@H](CCN)NC(=O)[C@H](CCN)NC1=O`, the minimum inhibitory concentration (MIC) (usually the lowest concentration that inhibits growth of the organism) in the experiment with Escherichia coli [1] worked out at 0.8 µg/mL (≈ 0.675 µM); against Pseudomonas aeruginosa, 8 µg/mL (≈ 6.75 µM); against Klebsiella pneumoniae it was 62 µg/mL (≈ 52.3 µM).
The matching figures for `CC(C)C[C@@H]1NC(=O)[C@@H](Cc2ccccc2)NC(=O)[C@H](CCN)NC(=O)[C@@H](NC(=O)[C@H](CCN)NC(=O)[C@H](NC(=O)[C@H](C)NC(=O)[C@@H](C)NC(=O)[C@H](C)NC(=O)[C@H](C)NC(=O)[C@@H](C)NC(=O)[C@H](C)N)[C@@H](C)O)CCNC(=O)[C@@H]([C@@H](C)O)NC(=O)[C@H](CCN)NC(=O)[C@H](CCN)NC1=O`: ≥ 500 µg/mL, ≥ 500 µg/mL and ≥ 500 µg/mL.
Turning to `CCCCCCCCCC(=O)N[C@H](C(=O)N[C@H](CO)C(=O)N[C@H]1CCNC(=O)[C@H]([C@@H](C)O)NC(=O)[C@H](CCN)NC(=O)[C@H](CCN)NC(=O)[C@H](CC(C)C)NC(=O)[C@@H](Cc2ccccc2)NC(=O)[C@H](CCN)NC1=O)[C@@H](C)O`, in the experiment on Escherichia coli [2], the GI is reported as 130 square millimeter.
On the same count and under the same terms, the same measure for `CCCCCCCC(=O)N[C@H](C(=O)N[C@H](CO)C(=O)N[C@H]1CCNC(=O)[C@H]([C@@H](C)O)NC(=O)[C@H](CCN)NC(=O)[C@H](CCN)NC(=O)[C@H]([C@H](C)O)NC(=O)[C@@H](Cc2ccccc2)NC(=O)[C@H](CCN)NC1=O)[C@@H](C)O`: 172 square millimeter; for `CCCCCCC(=O)N[C@H](C(=O)N[C@H](CO)C(=O)N[C@H]1CCNC(=O)[C@H]([C@@H](C)O)NC(=O)[C@H](CCN)NC(=O)[C@H](CCN)NC(=O)[C@H](CC(C)C)NC(=O)[C@@H](Cc2ccccc2)NC(=O)[C@H](CCN)NC1=O)[C@@H](C)O`: 80 square millimeter; for `CCCCCCC(=O)N[C@H](C(=O)N[C@H](CO)C(=O)N[C@H]1CCNC(=O)[C@H]([C@@H](C)O)NC(=O)[C@H](CCN)NC(=O)[C@H](CCN)NC(=O)[C@H]([C@H](C)O)NC(=O)[C@@H](Cc2ccccc2)NC(=O)[C@H](CCN)NC1=O)[C@@H](C)O`: 200 square millimeter.
Compound `CCCCCCCC(=O)N[C@H](C(=O)N[C@H](C)C(=O)N[C@H]1CCNC(=O)[C@H]([C@@H](C)O)NC(=O)[C@H](CCN)NC(=O)[C@H](CCN)NC(=O)[C@H]([C@H](C)O)NC(=O)[C@@H](Cc2ccccc2)NC(=O)[C@H](CCN)NC1=O)[C@@H](C)O` returned a GI in the experiment on Escherichia coli [2] of 60 square millimeter.
`CC(C)C[C@@H]1NC(=O)[C@@H](Cc2ccccc2)NC(=O)[C@H](CCCCN)NC(=O)[C@@H](NC(=O)[C@H](CCCCN)NC(=O)[C@@H](N)[C@@H](C)O)CCNC(=O)[C@H]([C@@H](C)O)NC(=O)[C@H](CCN)NC(=O)[C@H](CCN)NC1=O`: at Lipopolysaccharide (LPS), the negative logarithm of the IC50 (pIC50) (as a rule, −log10 of the IC50, conventionally taken in molar units) was 4.82. In addition, the Activity with Escherichia coli [3] stood at 4%.
In the case of `CC(C)C[C@@H]1NC(=O)[C@@H](Cc2ccccc2)NC(=O)[C@H](CN)NC(=O)[C@@H](NC(=O)[C@H](CN)NC(=O)[C@@H](N)[C@@H](C)O)CNC(=O)[C@H]([C@@H](C)O)NC(=O)[C@H](CN)NC(=O)[C@H](CN)NC1=O`, the pIC50 on Lipopolysaccharide (LPS) was 4.52. The Activity with Escherichia coli [3] stood at 11%.
Take `CC(C)C[C@@H]1NC(=O)[C@@H](Cc2ccccc2)NC(=O)[C@H](CCCCN)NC(=O)[C@@H](NC(=O)[C@H](CCCCN)NC(=O)[C@@H](N)[C@@H](C)O)CCNC(=O)[C@@H]([C@H](C)O)NC(=O)[C@H](CCN)NC(=O)[C@H](CCN)NC1=O`: the negative-log IC50 (pIC50) at Lipopolysaccharide (LPS) was 4.85. Further, the Activity with Escherichia coli [3] was found to be 9%.
For `CC(C)C[C@@H]1NC(=O)[C@@H](Cc2ccccc2)NC(=O)[C@H](CCN)NC(=O)[C@@H](NC(=O)[C@H](CCN)NC(=O)[C@@H](N)[C@@H](C)O)CCNC(=O)[C@H]([C@@H](C)O)NC(=O)[C@H](CCCCN)NC(=O)[C@H](CCCCN)NC1=O` the same measures were 4.92 and 40%.
Take `CC(C)C[C@@H]1NC(=O)[C@@H](Cc2ccccc2)NC(=O)[C@H](CC(=N)N)NC(=O)[C@@H](NC(=O)[C@H](CC(=N)N)NC(=O)[C@@H](N)[C@@H](C)O)CCNC(=O)[C@H]([C@@H](C)O)NC(=O)[C@H](CC(=N)N)NC(=O)[C@H](CC(=N)N)NC1=O`: the negative logarithm of the IC50 (pIC50) on Lipopolysaccharide (LPS) was 5.42. In addition, the Activity with Escherichia coli [3] turned out to be 25%.
`CCCCCCCC(=O)N[C@H](C(=O)N[C@@H](CC)C(=O)N[C@H]1CCNC(=O)[C@H]([C@@H](C)O)NC(=O)[C@H](CCN)NC(=O)[C@H](CCN)NC(=O)[C@H](CC(C)C)NC(=O)[C@@H](Cc2ccccc2)NC(=O)[C@H](CCN)NC1=O)[C@@H](C)O` gave a GI in the experiment with Escherichia coli [2] of 32 square millimeter.
For `CCCCCCCC(=O)N[C@H](C(=O)N[C@@H](CCN)C(=O)N[C@H]1CCNC(=O)[C@H]([C@@H](C)O)NC(=O)[C@H](CCN)NC(=O)[C@H](CC)NC(=O)[C@H](CC(C)C)NC(=O)[C@@H](Cc2ccccc2)NC(=O)[C@H](CCN)NC1=O)[C@@H](C)O`, the GI with Escherichia coli [2] came out at 60 square millimeter.
Same read-out and setting: the same measure for `CCCCCCCC(=O)N[C@H](C(=O)N[C@@H](CCN)C(=O)N[C@H]1CCNC(=O)[C@H]([C@@H](C)O)NC(=O)[C@H](CCN)NC(=O)[C@H](CCN)NC(=O)[C@H](CC(C)C)NC(=O)[C@H](Cc2ccccc2)NC(=O)[C@H](CCN)NC1=O)[C@@H](C)O`: 0 square millimeter; for `CCCCCCCC(=O)N[C@H](C(=O)N[C@@H](CCC(N)=O)C(=O)N[C@H]1CCNC(=O)[C@H]([C@@H](C)O)NC(=O)[C@H](CCN)NC(=O)[C@H](CCN)NC(=O)[C@H](CC(C)C)NC(=O)[C@@H](Cc2ccccc2)NC(=O)[C@H](CCN)NC1=O)[C@@H](C)O`: 10 square millimeter.
`CC(C)C[C@@H]1NC(=O)[C@@H](Cc2ccccc2)NC(=O)[C@H](CCN)NC(=O)[C@H](CCN)NC(=O)[C@H](NC(=O)[C@@H](N)[C@@H](C)O)CCNC(=O)[C@H]([C@@H](C)O)NC(=O)[C@H](CCN)NC(=O)[C@H](CCN)NC1=O`: at Lipopolysaccharide (LPS), the negative-log IC50 (pIC50) was 5.10. In the experiment with Escherichia coli [3], the Activity came out at 7%.
`CCCCCCCC(=O)N[C@H](C(=O)N[C@@H](CO)C(=O)N[C@H]1CCNC(=O)[C@H]([C@@H](C)O)NC(=O)[C@H](CCN)NC(=O)[C@H](CCN)NC(=O)[C@H](CC(C)C)NC(=O)[C@@H](Cc2ccccc2)NC(=O)[C@H](CCN)NC1=O)[C@@H](C)O` (Octanoyl-TS[Dab][Dab][dF]L[Dab][Dab]T; lactam 3-C) gave a GI in the experiment on Escherichia coli [2] of 171 square millimeter.
As to `CCCCCCCC(=O)N[C@H](C(=O)N[C@@H](CC)C(=O)N[C@H]1CCNC(=O)[C@H]([C@@H](C)O)NC(=O)[C@H](CCN)NC(=O)[C@H](CCN)NC(=O)[C@H](CC(C)C)NC(=O)[C@H](CC(C)C)NC(=O)[C@H](CCN)NC1=O)[C@@H](C)O` (Octanoyl-T[Abu][Dab][Dab]LL[Dab][Dab]T; lactam 3-C), in the experiment on Escherichia coli [2], the GI is given as 0 square millimeter.
Same read-out and setting: the same measure for `CCCCCCCC(=O)N[C@H](C(=O)N[C@@H](CC)C(=O)N[C@H]1CCNC(=O)[C@H](CC(C)C)NC(=O)[C@H](CCN)NC(=O)[C@H](CCN)NC(=O)[C@H](CC(C)C)NC(=O)[C@@H](Cc2ccccc2)NC(=O)[C@H](CCN)NC1=O)[C@@H](C)O` (Octanoyl-T[Abu][Dab][Dab][dF]L[Dab][Dab]L; lactam 3-C): 50 square millimeter.
For `CCCCCCCC(=O)N[C@@H](CCN)C(=O)N[C@H](C(=O)N[C@@H](CCN)C(=O)N[C@H]1CCNC(=O)[C@H]([C@@H](C)O)NC(=O)[C@H](CCNC(=O)CCl)NC(=O)[C@H](CCN)NC(=O)[C@H](CC(C)C)NC(=O)[C@@H](Cc2ccccc2)NC(=O)[C@H](CCN)NC1=O)[C@@H](C)O` [CHLOROACETYL DAB9 POLYMYXIN B], the minimum inhibitory concentration (MIC) amounted to 0.454 µg/mL (≈ 0.359 µM) with Escherichia coli [1], 0.085 µg/mL (≈ 0.0671 µM) against Pseudomonas aeruginosa and 9.5 µg/mL (≈ 7.5 µM) with Klebsiella pneumoniae.
Consider `CCCCCCCC(=O)N[C@@H](CCN)C(=O)N[C@H](C(=O)N[C@@H](CCN)C(=O)N[C@H]1CCNC(=O)[C@H]([C@@H](C)O)NC(=O)[C@H](CCNC(=O)C(Cl)Cl)NC(=O)[C@H](CCN)NC(=O)[C@H](CC(C)C)NC(=O)[C@@H](Cc2ccccc2)NC(=O)[C@H](CCN)NC1=O)[C@@H](C)O` [DICHLOROACETYL DAB9 POLYMYXIN B], for which the minimum inhibitory concentration (MIC) amounted to 1.54 µg/mL (≈ 1.18 µM) with Escherichia coli [1], 0.995 µg/mL (≈ 0.765 µM) in the experiment with Pseudomonas aeruginosa and 0.82 µg/mL (≈ 0.631 µM) with Klebsiella pneumoniae.
In the case of `CCCCCCCC(=O)N[C@@H](CCN)C(=O)N[C@H](C(=O)N[C@@H](CCN)C(=O)N[C@H]1CCNC(=O)[C@H]([C@@H](C)O)NC(=O)[C@H](CCNC(C)C)NC(=O)[C@H](CCN)NC(=O)[C@H](CC(C)C)NC(=O)[C@@H](Cc2ccccc2)NC(=O)[C@H](CCN)NC1=O)[C@@H](C)O` [DIMETHYL DAB9 POLYMYXIN B], the MIC was 0.537 µg/mL (≈ 0.436 µM) in the experiment with Escherichia coli [1], 0.456 µg/mL (≈ 0.37 µM) in the experiment on Pseudomonas aeruginosa and 16 µg/mL (≈ 13 µM) against Klebsiella pneumoniae.
The matching figures for `CCCCCCCC(=O)N[C@@H](CCN)C(=O)N[C@H](C(=O)N[C@@H](CCN)C(=O)N[C@H]1CCNC(=O)[C@H]([C@@H](C)O)NC(=O)[C@H](CCNC(=O)CO)NC(=O)[C@H](CCN)NC(=O)[C@H](CC(C)C)NC(=O)[C@@H](Cc2ccccc2)NC(=O)[C@H](CCN)NC1=O)[C@@H](C)O` [HYDROXYACETYL DAB9 POLYMYXIN B]: 1.54 µg/mL (≈ 1.23 µM), 1.53 µg/mL (≈ 1.23 µM) and 22.6 µg/mL (≈ 18.1 µM).
Consider `CCCCCCCC(=O)N[C@@H](CCN)C(=O)N[C@H](C(=O)N[C@@H](CCN)C(=O)N[C@H]1CCNC(=O)[C@H]([C@@H](C)O)NC(=O)[C@H](CCNC(=O)C(N)CCCN)NC(=O)[C@H](CCN)NC(=O)[C@H](CC(C)C)NC(=O)[C@@H](Cc2ccccc2)NC(=O)[C@H](CCN)NC1=O)[C@@H](C)O` (stereo partly drawn) [L-LYSYL DAB9 POLYMYXIN B], for which the figures for the MIC against Escherichia coli [1], against Pseudomonas aeruginosa and against Klebsiella pneumoniae were 0.173 µg/mL (≈ 0.133 µM), 0.032 µg/mL (≈ 0.0245 µM) and 2.8 µg/mL (≈ 2.15 µM), respectively.
